From ChEMBL document CHEMBL1127448, “Synthesis, ligand binding, and QSAR (CoMFA and classical) study of 3 beta-(3'-substituted phenyl)-, 3 beta-(4'-substituted phenyl)-, and 3 beta-(3',4'-disubstituted phenyl)tropane-2 beta-carboxylic acid methyl esters” (J Med Chem, 1994) come the findings set out here.

For this assay, the target named is Sodium-dependent dopamine transporter (Rattus norvegicus, UniProt P23977). As to the kind of experiment: Concentration required to inhibit 50% of radioligand binding ([3H]WIN-35428) to the dopamine (DA) transporter in rat.
Sodium-dependent dopamine transporter, sequence (P23977 whole entry): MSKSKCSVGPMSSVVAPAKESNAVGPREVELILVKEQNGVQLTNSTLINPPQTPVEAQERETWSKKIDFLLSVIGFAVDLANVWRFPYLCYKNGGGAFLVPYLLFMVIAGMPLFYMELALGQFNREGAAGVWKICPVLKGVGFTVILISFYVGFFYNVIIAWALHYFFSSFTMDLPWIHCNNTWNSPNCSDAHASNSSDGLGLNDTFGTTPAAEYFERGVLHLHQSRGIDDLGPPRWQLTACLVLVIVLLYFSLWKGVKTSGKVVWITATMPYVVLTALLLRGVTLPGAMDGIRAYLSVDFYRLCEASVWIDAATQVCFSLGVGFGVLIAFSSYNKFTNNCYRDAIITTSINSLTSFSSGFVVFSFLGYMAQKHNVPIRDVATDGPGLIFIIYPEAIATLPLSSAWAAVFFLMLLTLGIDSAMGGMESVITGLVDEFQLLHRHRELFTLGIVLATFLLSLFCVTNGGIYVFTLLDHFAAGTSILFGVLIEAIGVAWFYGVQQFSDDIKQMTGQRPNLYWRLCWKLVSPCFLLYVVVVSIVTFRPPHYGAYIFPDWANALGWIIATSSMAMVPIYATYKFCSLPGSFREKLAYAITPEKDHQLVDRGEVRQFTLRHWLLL
What is called IC50 is the concentration that inhibits the measured activity by half. `CCC(=O)Nc1ccc([C@H]2C[C@H]3CCC([C@H]2C(=O)OC)N3C)cc1`: the IC50 stood at 121 nM.
`COC(=O)C1C2CC[C@H](C[C@H]1c1ccc(Br)cc1)N2C` (some centres not stated) returned an IC50 of 1.69 nM.
The same measure for `COC(=O)C1C2CC[C@@H](C[C@@H]1c1ccc([N+](=O)[O-])cc1)N2C` (some centres not stated): 13.1 nM; for `COC(=O)C1C2CC[C@H](C[C@H]1c1ccc(Cl)c(Cl)c1)N2C` (some centres not stated): 0.79 nM.
The compound `COC(=O)C1C2CC[C@H](C[C@@H]1c1cccc(I)c1)N2C` (some centres not stated) gave an IC50 of 26.1 nM.
In the case of `COC(=O)C1C2CC[C@H](C[C@@H]1c1cccc(Cl)c1)N2C` (some centres not stated), the IC50 stood at 6.27 nM.
The compound `COC(=O)C1C2CC[C@H](C[C@@H]1c1cccc(F)c1)N2C` (some centres not stated) came in with an IC50 of 16.4 nM.
For the compound `COC(=O)C1C2CC[C@H](C[C@@H]1c1ccc(N)c(Br)c1)N2C` (some centres not stated), the IC50 turned out to be 3.91 nM.
The same measure for `COC(=O)C1C2CC[C@H](C[C@@H]1c1ccc(N)c(I)c1)N2C` (some centres not stated): 1.35 nM; for `COC(=O)C1C2CC[C@H](C[C@@H]1c1ccc(O)cc1)N2C` (some centres not stated): 12.1 nM.
The same measure for `COC(=O)[C@@H]1C2CC[C@H](C[C@@H]1c1ccc(N)cc1)N2C`: 9.84 nM; for `COC(=O)C1C2CC[C@H](C[C@@H]1c1ccc(F)c(C)c1)N2C` (stereo in doubt; 2x): 2.95 nM.
